System: hepatocytes
Experiment: RNA-seq of hepatocytes treated with Phase III failure compounds
Protocol: RNA-seq was performed to determine the effects of the compounds on hepatocytes.
Significance was determined by the criteria of FPKM≥0.5, a log 2(fold-change)≥1, and a […].

CCC(CC)[C@H](NC(C)=O)[C@@H]1[C@H](O)[C@@H](C(=O)O)C[C@H]1NC(=N)N.O.O.O [peramivir (trihydrate), peramivir]
RNA-seq results, gene PFKM (PFKM expression in hepatocytes): 0.02 | RNA-seq results, gene PGM1 (PGM1 expression in hepatocytes): 0.01 | RNA-seq results, gene PHGDH (PHGDH expression in hepatocytes): 0.67 | RNA-seq results, gene PHKA1 (PHKA1 expression in hepatocytes): 0.42 | RNA-seq results, gene PHKA2 (PHKA2 expression in hepatocytes): −0.03 | RNA-seq results, gene PHKB (PHKB expression in hepatocytes): −0.06 | RNA-seq results, gene PHYH (PHYH expression in hepatocytes): −0.05 | RNA-seq results, gene PIEZO1 (PIEZO1 expression in hepatocytes): 0.08 | RNA-seq results, gene PIGA (PIGA expression in hepatocytes): −0.01 | RNA-seq results, gene PIGM (PIGM expression in hepatocytes): 0.04 | RNA-seq results, gene PKD1 (PKD1 expression in hepatocytes): 0.39 | RNA-seq results, gene PKD2 (PKD2 expression in hepatocytes): −0.13 | RNA-seq results, gene PKHD1 (PKHD1 expression in hepatocytes): −0.79 | RNA-seq results, gene PKLR (PKLR expression in hepatocytes): 0.01 | RNA-seq results, gene PLA2G6 (PLA2G6 expression in hepatocytes): 0.31 | RNA-seq results, gene PLEKHM1 (PLEKHM1 expression in hepatocytes): 0.52 | RNA-seq results, gene PMVK (PMVK expression in hepatocytes): 0.33 | RNA-seq results, gene PNP (PNP expression in hepatocytes): 0.05 | RNA-seq results, gene PNPLA2 (PNPLA2 expression in hepatocytes): 0.19 | significant modulation of expression of disease genes (RNA-seq, q≤0.05, hepatocytes, genes in the value or listed in the block): significantly (q≤0.05) modulate expression of RMRP | RNA-seq results: A1BG expression (gene A1BG, hepatocytes): 0.02 | RNA-seq results: AARS2 expression (gene AARS2, hepatocytes): 0.27 | RNA-seq results: AASS expression (gene AASS, hepatocytes): −0.12 | RNA-seq results: ABAT expression (gene ABAT, hepatocytes): −0.09 | RNA-seq results: ABCA1 expression (gene ABCA1, hepatocytes): −0.04 | RNA-seq results: ABCB4 expression (gene ABCB4, hepatocytes): 0.01 | RNA-seq results: ABCB11 expression (gene ABCB11, hepatocytes): 0.20 | RNA-seq results: ABCC2 expression (gene ABCC2, hepatocytes): 0.02 | RNA-seq results: ABCC3 expression (gene ABCC3, hepatocytes): 0.32 | RNA-seq results: ABCC6 expression (gene ABCC6, hepatocytes): 0.47 | RNA-seq results: ABCD1 expression (gene ABCD1, hepatocytes): 0.25 | RNA-seq results: ABCD3 expression (gene ABCD3, hepatocytes): −0.28 | RNA-seq results: ABCG5 expression (gene ABCG5, hepatocytes): 0.09 | RNA-seq results: ABCG8 expression (gene ABCG8, hepatocytes): 0.06 | RNA-seq results: ABHD5 expression (gene ABHD5, hepatocytes): −0.22 | RNA-seq results: ACACA expression (gene ACACA, hepatocytes): 0.04 | RNA-seq results: ACACB expression (gene ACACB, hepatocytes): 0.36 | RNA-seq results: ACAD9 expression (gene ACAD9, hepatocytes): 0.00 | RNA-seq results: ACADSB expression (gene ACADSB, hepatocytes): −0.29 | RNA-seq results: ACADVL expression (gene ACADVL, hepatocytes): 0.30 | RNA-seq results: ACOT8 expression (gene ACOT8, hepatocytes): −0.13 | RNA-seq results: ACOX2 expression (gene ACOX2, hepatocytes): −0.03 | RNA-seq results: ACOX3 expression (gene ACOX3, hepatocytes): −0.01 | RNA-seq results: ACSF3 expression (gene ACSF3, hepatocytes): 0.08 | RNA-seq results: ACSL1 expression (gene ACSL1, hepatocytes): −0.03 | RNA-seq results: ACSL3 expression (gene ACSL3, hepatocytes): −0.34 | RNA-seq results: ACTG2 expression (gene ACTG2, hepatocytes): −1.66 | RNA-seq results: ACTN1 expression (gene ACTN1, hepatocytes): −0.03 | RNA-seq results: ADA expression (gene ADA, hepatocytes): 0.16 | RNA-seq results: ADCK3 expression (gene ADCK3, hepatocytes): −0.02 | RNA-seq results: ADK expression (gene ADK, hepatocytes): −0.46 | RNA-seq results: ADSL expression (gene ADSL, hepatocytes): −0.36 | RNA-seq results: AFP expression (gene AFP, hepatocytes): −0.31 | RNA-seq results: AGK expression (gene AGK, hepatocytes): −0.24 | RNA-seq results: AGL expression (gene AGL, hepatocytes): −0.20 | RNA-seq results: AGPAT2 expression (gene AGPAT2, hepatocytes): 0.36 | RNA-seq results: AGPS expression (gene AGPS, hepatocytes): −0.31 | RNA-seq results: AGT expression (gene AGT, hepatocytes): −0.08 | RNA-seq results: AGTR1 expression (gene AGTR1, hepatocytes): −0.40 | RNA-seq results: AGXT expression (gene AGXT, hepatocytes): 0.44 | RNA-seq results: AHI1 expression (gene AHI1, hepatocytes): −0.18 | RNA-seq results: AHSG expression (gene AHSG, hepatocytes): 0.03 | RNA-seq results: AK1 expression (gene AK1, hepatocytes): −0.06 | RNA-seq results: AKR1C1 expression (gene AKR1C1, hepatocytes): −0.24 | RNA-seq results: AKR1C2 expression (gene AKR1C2, hepatocytes): 0.07 | RNA-seq results: AKR1C4 expression (gene AKR1C4, hepatocytes): −0.41 | RNA-seq results: AKR1D1 expression (gene AKR1D1, hepatocytes): −0.04 | RNA-seq results: ALAD expression (gene ALAD, hepatocytes): 0.07 | RNA-seq results: ALAS1 expression (gene ALAS1, hepatocytes): −0.13 | RNA-seq results: ALDH1B1 expression (gene ALDH1B1, hepatocytes): 0.10 | RNA-seq results: ALDH2 expression (gene ALDH2, hepatocytes): 0.07 | RNA-seq results: ALDH6A1 expression (gene ALDH6A1, hepatocytes): −0.48 | RNA-seq results: ALDOA expression (gene ALDOA, hepatocytes): 0.01 | RNA-seq results: ALDOB expression (gene ALDOB, hepatocytes): −0.08 | RNA-seq results: ALG12 expression (gene ALG12, hepatocytes): 0.02 | RNA-seq results: ALMS1 expression (gene ALMS1, hepatocytes): −0.05 | RNA-seq results: ALPL expression (gene ALPL, hepatocytes): −0.08 | RNA-seq results: AMACR expression (gene AMACR, hepatocytes): −0.17 | RNA-seq results: AMPD3 expression (gene AMPD3, hepatocytes): 0.13 | RNA-seq results: AMT expression (gene AMT, hepatocytes): 0.24 | RNA-seq results: ANGPTL3 expression (gene ANGPTL3, hepatocytes): −0.42 | RNA-seq results: ANKS4B expression (gene ANKS4B, hepatocytes): −0.06 | RNA-seq results: ANKS6 expression (gene ANKS6, hepatocytes): 0.15 | RNA-seq results: ANPEP expression (gene ANPEP, hepatocytes): 0.07 | RNA-seq results: AOC2 expression (gene AOC2, hepatocytes): 0.42 | RNA-seq results: AP3B1 expression (gene AP3B1, hepatocytes): −0.40 | RNA-seq results: APC expression (gene APC, hepatocytes): −0.20 | RNA-seq results: APOA1 expression (gene APOA1, hepatocytes): −0.02 | RNA-seq results: APOA2 expression (gene APOA2, hepatocytes): −0.52 | RNA-seq results: APOA5 expression (gene APOA5, hepatocytes): 0.13 | RNA-seq results: APOB expression (gene APOB, hepatocytes): −0.10 | RNA-seq results: APOC2 expression (gene APOC2, hepatocytes): −0.17 | RNA-seq results: APOC3 expression (gene APOC3, hepatocytes): −0.06 | RNA-seq results: APOE expression (gene APOE, hepatocytes): 0.04 | RNA-seq results: APRT expression (gene APRT, hepatocytes): 0.23 | RNA-seq results: AQP7 expression (gene AQP7, hepatocytes): −0.41 | RNA-seq results: AQP9 expression (gene AQP9, hepatocytes): −0.29 | RNA-seq results: ARG1 expression (gene ARG1, hepatocytes): 0.02 | RNA-seq results: ARG2 expression (gene ARG2, hepatocytes): −0.34 | RNA-seq results: ARL13B expression (gene ARL13B, hepatocytes): −0.24 | RNA-seq results: ARSA expression (gene ARSA, hepatocytes): 0.49 | RNA-seq results: ARSB expression (gene ARSB, hepatocytes): 0.03 | RNA-seq results: ASL expression (gene ASL, hepatocytes): 0.25 | RNA-seq results: ASNS expression (gene ASNS, hepatocytes): −0.22 | RNA-seq results: ASPA expression (gene ASPA, hepatocytes): −0.10 | RNA-seq results: ASXL1 expression (gene ASXL1, hepatocytes): 0.09 | RNA-seq results: ATG7 expression (gene ATG7, hepatocytes): −0.05 | RNA-seq results: ATIC expression (gene ATIC, hepatocytes): −0.26 | RNA-seq results: ATM expression (gene ATM, hepatocytes): 0.16 | RNA-seq results: ATP7A expression (gene ATP7A, hepatocytes): −0.27 | RNA-seq results: ATP7B expression (gene ATP7B, hepatocytes): 0.00 | RNA-seq results: ATP8B1 expression (gene ATP8B1, hepatocytes): −0.26 | RNA-seq results: B2M expression (gene B2M, hepatocytes): −0.52 | RNA-seq results: B9D2 expression (gene B9D2, hepatocytes): 0.35 | RNA-seq results: BAAT expression (gene BAAT, hepatocytes): −0.23 | RNA-seq results: BBOX1 expression (gene BBOX1, hepatocytes): −0.71 | RNA-seq results: BBS10 expression (gene BBS10, hepatocytes): −0.36 | RNA-seq results: BCHE expression (gene BCHE, hepatocytes): −0.32 | RNA-seq results: BCKDHB expression (gene BCKDHB, hepatocytes): −0.10

— patent publication US20210254056A1, “IDENTIFICATION AND TARGETED MODULATION OF GENE SIGNALING NETWORKS” (CAMP4 THERAPEUTICS CORPORATION, priority 2017, published 2021)
